Laboratory results reported in ChEMBL document CHEMBL1135522, “Novel retinoid X receptor antagonists: specific inhibition of retinoid synergism in RXR-RAR heterodimer actions” (2002).

Assays:
[1] = system: HL-60; assay: Percentage inhibition of human promyelocytic leukemia cells HL-60 differentiation induced by combined RAR and RXR agonists; Range is from 34-73; format: functional
[2] = system: HL-60; assay: Percentage of human promyelocytic leukemia cells HL-60 differentiation induced by Am80 RAR agonist; format: functional

SMILES | Inhibition [1] | Inhibition [2]
CC1(C)CCC(C)(C)c2cc(N(CC3CC3)c3ncc(C(=O)O)cn3)ccc21 | 73% | –
CCCCCOc1cc2c(cc1N(C)c1ncc(C(=O)O)cn1)C(C)(C)CCC2(C)C | – | 44%
